Results: US20230384333A1 (priority 2020, published 2023)
“And” between values parts separate entries of the source, which are not always exact repeats. Identical values can stand only once. “Also recorded” adds a separate entry of the source. Counter-ions that a name gives are not always drawn.

Legend:
psychLight2 [1] = format: cell-based, human
Description: Compounds unlikely to bind to the sensor should produce minimal to no response in either agonist or antagonist mode. Therefore, a ligand score was calculated as: […]

C57BL/6J mice [2] = assay: Forced swim test (FST); format: in vivo, mouse
psychLight2 [3] = assay: PSYLI2 high-content imaging, agonist mode; format: cell-based, human; settings: 10 μM compound, hit limit 1 SD from vehicle
Description: (§1) High-Content Imaging Experiments. Glass bottom 96-well plates (P96-1.5H-N, Cellvis) were coated with 50 μg/mL of poly-D-lysine (Sigma, P6407-5MG) and 10 μg/mL laminin (Sigma, L2020) overnight in an incubator (37° C., 5% CO2). […] Immediately prior to an experiment, stock solutions of drugs in DMSO (10 mM) were first diluted 1:100 in imaging media distributed across an empty 96-well plate (treatment plate) in triplicates following a randomized plate map. […] Cells grown in a separate 96-well plate (assay plate) were gently washed (3×) with imaging media, and the wells were filled with an appropriate volume of imaging media for the respective experiment (vide infra).
(§2) For agonist mode, […] of imaging media was added to each well of the assay plate. Wells were then imaged on a Lecia DMi8 using Leica Application Suite X (V3.6.0.20104) at 40×(N.A.=0.6) with 5 regions of interest (ROI) taken per well using the default 5 ROI pattern for each well with no bias to location and no overlap of the ROIs (exposure=350 ms, LED power=80%). Next, 20 μL from the treatment plate was transferred to the assay plate for a total 1:1000 dilution of drug (10 μM drug, 0.1% DMSO). […] All final concentrations of drugs were 10 μM (0.1% DMSO) in agonist mode unless stated otherwise. After 5 min of incubation, the same sites were re-imaged using the same settings.
Once imaging was complete, the images were exported, put into a stack, and analyzed using ImageJ Fiji (ver. 1.51v) by using the rectangle function to draw an ROI around the cell membrane (one cell per image) on both the pre- and posttreatment images. ROI sizes within each plate were kept the same and saved to the ROI manager in ImageJ (ctrl+T). Images were then measured using the “multi measure” function in the ROI manager. Measurements were saved and exported. Analysis of the data was done by taking the average of each individual well's ROIs before and after drugs were added. Then the ΔF/F values for each well were calculated using the following equation: […]
as §1, with “Glass” for “High-Content Imaging Experiments. Glass”, “50 µg/mL” for “50 μg/mL”, “10 pg/mL of” for “10 μg/mL”, “were” for “were first”, “in triplicate” for “in triplicates”, “washed 3×” for “washed (3×)”
as §2, with “agonist mode experiments,” for “agonist mode,”, “media were” for “media was”, “20 pL” for “20 μL”, “plate containing” for “plate for”, “a” for “a total”, “(10 pM as the final concentration in” for “(10 μM drug,”
Once imaging was complete, the images were exported, and analyzed using self-written MATLAB script. Script will be deposit on to Github. In short, segmentation was performed on individual images and a mask highlighting the membrane of the HEK293T cells was generated. Pixel intensities were obtained from the mask-highlighted area and exported into Excel. The ΔF/F values for each well were calculated using the following equation: […]

VMAT2-HET mice = assay: Sucrose preference (anhedonia) test; format: in vivo, mouse
Description: Adult male and female wild-type (WT) and VMAT2 heterozygous (VMAT2-HET) mice were used for these experiments, and they were housed in a humidity- and temperature-controlled room on a 14:10 h light:dark cycle. Mice were housed individually 48 h prior to the experiment with ad libitum access to chow and water. For each day's experiment, bottles were prepared with water or a 1% sucrose solution and these were weighed just prior to the test. Two h prior to the beginning of the dark cycle, the home-cage water bottle was removed. One h after onset of the dark cycle, a pair of bottles was placed into the home-cage. The mouse was given 2 h to drink, after which the bottles were removed and weighed immediately. Approximately 1 h later, the home-cage water bottle was returned. […] Once criterion was achieved, the mouse was presented with the water-sucrose (W-S) pairing. The next day (day 1), mice were administered an acute injection of AAZ-A-154 (15 mg/kg, i.p.) and 5 min later were given the W-S pairing (i.e., day 1). Subsequent W-S pairings were presented on days 2 and 4, and then at 4-day intervals. Preference for the sucrose bottle was calculated as the volume of sucrose consumed minus the volume of water consumed, divided by the total volume of liquid consumed. Preference scores approaching “0” indicated no preference for sucrose or water, whereas positive scores signified a preference for sucrose and negative scores denoted a preference for water.

psychLight = assay: Schild regression analysis in PSYLI2 cells; format: cell-based, human
Description: During imaging, […] of imaging media were added to each well of the assay plate. Wells were then imaged on a Lecia DMi8 using Leica Application Suite X (V3.6.0.20104) at 40×(N.A.=0.6) with 5 regions of interest (ROI) taken per well using the default 5 ROI pattern for each well with no bias to location and no overlap of the ROIs (exposure=350 ms, LED power=80%). Next, […] from the treatment plate was transferred to the assay plate for a final 1:1000 dilution of drug. All final drug treatments contained 0.1% DMSO. After 5 min of incubation, the same sites were re-imaged using the same settings. The data analysis method was the same as in agonist and antagonist mode.

C57BL/6J mice [4] = assay: Head-twitch response (HTR) assay; format: in vivo, mouse; settings: i.p., multiple doses
Description: (§3) The HTR assay was performed as described previously using both male and female C57BL/6J mice (2 male and 2 female=4 total per treatment). The mice were obtained from The Jackson Laboratory (Sacramento, C.A.) and were approximately 8-weeks old at the time of the experiments. Compounds were administered (5 mL/kg, i.p.) using 0.9% saline as the vehicle. After injection, animals were placed into an empty cage (8″×13″×5″) and HTRs were videotaped, scored later by two blinded observers, and the results were averaged (interpersonnel kappas, Pearson correlation coefficient>0.91). Locomotion was assessed using AnyMaze automated tracking software.

[5] = tested on: GPCR-based sensors (dopamine, adrenergic, opioid, and serotonin receptors); format: cell-based; settings: 10 μM AAZ-A-154, agonist and antagonist mode
C57BL/6J mice [6] = assay: Locomotion assay; format: in vivo, mouse; settings: i.p., multiple doses
Description: as §3

[7] = tested on: embryonic rat cortical neurons; assay: Dendritogenesis (Sholl analysis) in cultured cortical neurons; format: cell-based
Description: For the dendritogenesis experiments conducted using cultured E18 cortical neurons, timed-pregnant Sprague Dawley rats were obtained from Charles River Laboratories (Wilmington, MA). Full culturing, staining, and analysis details were performed as previously described.

[8] = Plate reader screening for compound fluorescence (cell-free); format: physicochemical; settings: 10 μM, excitation 465 nm, emission 518 nm
dLight = format: cell-based
psychLight2 [9] = format: cell-based, mouse
[10] = tested on: psychLight2 response to electrically evoked 5-HT release; design: species or system mouse; settings: 50 mM escitalopram as printed
[11] = tested on: 5-HT levels reported by psychLight2 in DRN, BNST, BLA, OFC; format: in vivo, mouse; settings: 10 mg/kg, 30 mins prior to imaging

COc1ccc2c(ccn2C[C@@H](C)N(C)C)c1.O=C(O)/C=C/C(=O)O [AAZ-A-154]
ligand score (psychLight2 [1]): favorable ligand score | immobility in the forced swim test (C57BL/6J mice [2]; 20 mg/kg i.p.): decreased immobility | time course of antidepressant-like effects in FST (C57BL/6J mice [2]; single administration 20 mg/kg, tested 30 min and 1 week later): both rapid (30 min) and long-lasting (1 week) antidepressant-like effects | screen outcome in agonist mode (psychLight2 [3]): decreased the intrinsic fluorescence of psychLight | sucrose preference of WT animals (VMAT2-HET mice; 15 mg/kg i.p.): had no effect on WT animals; also recorded: did not modify sucrose preference in the WT animals | persistence of anti-anhedonic effect (VMAT2-HET mice; VMAT2-HET mice, single injection 15 mg/kg, listed as AAZ, 15 mg/kg): at least 12 days | duration of beneficial behavioral effects (VMAT2-HET mice; rodents, single administration): > 1 week and > 2 week | sucrose preference of VMAT2-HET mice after dosing (VMAT2-HET mice; single injection 15 mg/kg i.p.): sucrose preference that was indistinguishable from WT controls | Schild regression (pA2) outcome (psychLight): psychLight competitive antagonist | head-twitch response (HTR) (C57BL/6J mice [4]): did not produce any head-twitches, even up to doses as high as 100 mg/kg; also recorded: failed to produce any head-twitches, even up to doses as high as 100 mg/kg | selectivity across receptor-based sensors [5]: high selectivity for 5-HT2 receptors | locomotion (C57BL/6J mice [6]): a high dose of the compound did decrease locomotion; also recorded: a high dose of AAZ-A-154 decreased locomotion; also recorded: only decreases locomotion at a very high dose (100 mg/kg) | dendritic arbor complexity (Sholl analysis) [7]: increased dendritic arbor complexity; also recorded: increases dendritic arbor complexity to a comparable extent as the fast-acting antidepressant ketamine | effect on dendritic growth in presence of ketanserin [7]: abrogated by the 5-HT2A antagonist ketanserin; also recorded: abolished by the 5-HT2R antagonist ketanserin

CCN(CC)C(=O)[C@@H]1C=C2c3cccc4[nH]c(Br)c(c34)C[C@H]2N(C)C1 [BOL-148, 2-bromo-lysergic acid di-ethylamide]
screen outcome in agonist mode (psychLight2 [3]): producing positive signals; also recorded: produced unexpected fluorescence signals | origin of fluorescence signal, cell-free vs PSYLI2 cells [8]: due to the inherent fluorescence of these compounds, and not due to activation of the sensor

CCN(CC)C(=O)[C@@H]1C=C2c3cccc4[nH]cc(c34)C[C@H]2N(C)C1 [LSD, lysergic acid diethylamide]
activation of dLight (dLight): both activated dLight to the same extent

CP(C)C.F[P-](F)(F)(F)(F)F.F[P-](F)(F)(F)(F)F.NCCc1c[nH]c2ccc(O)cc12.[Ru+2].c1ccc(-c2ccccn2)nc1.c1ccc(-c2ccccn2)nc1 [RuBi-5-HT]
ΔpL2/tdT (psychLight2 to tdTomato ratio vs baseline) (psychLight2 [9]): 111.2%±0.7%

CN(C)CCC[C@@]1(c2ccc(F)cc2)OCc2cc(C#N)ccc21 [escitalopram, escitalopram oxalate]
ΔF/F of psychLight2 response to electrical stimuli [10]: 18.4%±4.3% | effect on 5-HT dynamics following foot shock [11]: mitigated the reduction in 5-HT levels observed following foot shock; also recorded: delayed the return of elevated 5-HT levels to baseline
